# Assay results as given in US20200270309A1, “MALEIMIDE GROUP-MODIFIED ANGIOGENESIS INHIBITOR HM-1 AND USE THEREOF” (NANJING ANJI BIOLOGICAL TECHNOLOGY CO., LTD, priority 2017, published 2020).
# Marks after values point to notes of the source that are not given here. Peptide text beside a SMILES is read from it. * marks the point of attachment. X74 = O=C1C=CC(=O)N1c1cccc(CCCCCCCCCCC(=O)*)c1; X84 = O=C1C=CC(=O)N1c1ccccc1CCCCCCCCCCCCC(=O)*; X71 = O=C1C=CC(=O)N1c1cccc(CCCCCC(=O)*)c1; X61 = O=C1C=CC(=O)N1c1cccc(CCCC(=O)*)c1
# Legend:
# [1] = test system: choroidal neovascularization; test: Choroidal neovascularization in rats (laser photocoagulation, FFA); format: in vivo; conditions: BN rats
# Protocol: 6-8 weeks male BN rats were fully anesthetized by intraperitoneal injection of 846 compound anesthetic with a concentration of 0.5 mL/kg. Compound tropicamide eye drops were used once 5 min before laser photocoagulation to fully dilate the pupils of both eyes. The animals were fixed and subjected to krypton laser photocoagulation equidistantly around an optic disc with the aid of a −53.00D corneal contact lens at a distance of 2PD from the optic disc. A total of 8 photocoagulation spots were obtained. The laser wavelength was 647.1 nm, the power was 350 mW, and the diameter and time of the photocoagulation spots were 50 μm and 0.05 s respectively. Fundus photography was performed immediately after photocoagulation. FFA, histopathology and transmission electron microscopy were performed on the days 3, 7, 14, 21 and 28 after photocoagulation respectively.
# Through fundus photography and FFA examination, it was confirmed that the fluorescein leakage of the photocoagulation spot reached its peak on day 21 after photocoagulation. At the same time, histopathological examination was carried out.
# Rats with successful modeling were randomly grouped, with 5 rats in each group. The groups were marked as a negative control group and X1-X90 treatment groups respectively. The rats were injected with normal saline and X1-X90 (the doses of X1-X90 were each 0.05 μM) in the vitreous chamber once a day for 1 week. FFA examination was carried out 3 days, 7 days, 14 days and 28 days after administration.
# [2] = test system: carrageenan-induced toe swelling; test: Carrageenan-induced toe swelling in rats; format: in vivo; conditions: SD rats; for Swelling degree 1 h: 1 h after carrageenan; for Swelling degree 3 h: 3 h after carrageenan; for Swelling degree 5 h: 5 h after carrageenan; for Swelling degree 7 h: 7 h after carrageenan
# In short: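 Rats dosed by injection once daily for 3 d, controls given equal-volume saline. Right hind paw volume measured by water displacement to a marked joint line; swelling degree (mL) is paw volume after carrageenan inflammation minus volume before.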
# [3] = Half-lives and pharmacokinetic parameters of polypeptides vs HM-1; conditions: in vivo; for half-life: T1/2β (half-life)
# adjuvant arthritis = test: Rat adjuvant arthritis (AA) animal model; format: in vivo, SD rats; conditions: 4.0 mg/kg; for Clinical score: intravenous in the tail once every five days from day 10, four paws scored 0-4, max 16, mean±SD; for Joint swelling degree / Left and right paw swelling degree: intravenous in the tail once every five days from day 10, mean±SD
# [4] = test system: retinal neovascularization (OIR model); test: Retinal vessels in OIR mice; format: in vivo, C57/B16 mice; conditions: for Area of neovascular plexus (mm^2): dose 0.05 μM in the vitreous chamber on day 13, retinal vessels evaluated on day 17; for Inhibition rate (%): dose 0.05 μM in the vitreous chamber on day 13, retinal vessels evaluated on day 17, vs negative control
# Text: Establishment of an OIR model: Young mice and their mothers were exposed in a 75% hyperoxic environment from day 7 to day 12 after the birth of C57/B16 mice, which caused capillaries in their central retina to disappear rapidly. The mice were returned to the indoor air on day 12, retinal vessels exposed to hyperoxia quickly disappeared, causing extensive abnormal neoangiogenesis, and the central part of the retina remained largely avascular for a long time. After the blood vessels disappeared completely, the mice were injected with normal saline (a negative group), X1-X12, X13-X44, X45-X90 in the vitreous chamber on day 13 respectively, and retinal vessels were evaluated on day 17 ([…] of Texas red labeled tomato agglutinin was injected into the left ventricle to mark unclosed vessels and circulated for 5 min).
# splenic lymphocytes = test: Proliferation of splenic lymphocytes in mice (ConA, MTT); format: cell-based; conditions: ConA-stimulated mouse splenic lymphocytes, 48 h
# In short: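 Mouse splenocytes (5×10^6 cells/mL, RPMI 1640 with 10% calf serum, red cells lysed) stimulated with ConA plus varying polypeptide concentrations, with blank, ConA-only and Dex groups, 48 h at 37° C. MTT added for 4 h, formazan dissolved in DMSO, OD read at 570 nm; five replicates.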
# [5] = day 3 after administration, total light spot number was 297, 0.05 μM in the vitreous chamber once a day for 1 week
# [6] = day 7 after administration, total light spot number was 186, 0.05 μM in the vitreous chamber once a day for 1 week
# [7] = day 14 after administration, total light spot number was 137, 0.05 μM in the vitreous chamber once a day for 1 week
# [8] = day 28 after administration, total light spot number was 69, 0.05 μM in the vitreous chamber once a day for 1 week
AUC(0-inf) [3] [ng·h/mL],MRT inf [3] [h],clearance [3] [mL/min/kg],half-life [3] [h],Structure (SMILES),"CNV Incidence (%) [1, 5] [%]","Leakage Light spot number [1, 5]","CNV Incidence (%) [1, 6] [%]","Leakage Light spot number [1, 6]","CNV Incidence (%) [1, 7] [%]","Leakage Light spot number [1, 7]","CNV Incidence (%) [1, 8] [%]","Leakage Light spot number [1, 8]",Swelling degree 1 h ([2]; 2.0 mg/kg once a day for 3 d) [mg],Swelling degree 3 h ([2]; 2.0 mg/kg once a day for 3 d) [mg],Swelling degree 5 h ([2]; 2.0 mg/kg once a day for 3 d) [mg],Swelling degree 7 h ([2]; 2.0 mg/kg once a day for 3 d) [mg],Swelling degree 1 h ([2]; 4.0 mg/kg once a day for 3 d) [mg],Swelling degree 3 h ([2]; 4.0 mg/kg once a day for 3 d) [mg],Swelling degree 5 h ([2]; 4.0 mg/kg once a day for 3 d) [mg],Swelling degree 7 h ([2]; 4.0 mg/kg once a day for 3 d) [mg],other results
26200 ± 7250,46.9 ± 9.74,0.635,32.52 ± 0.25,C[C@H](NC(=O)CNC(=O)[C@H](CCCNC(=N)N)NC(=O)CCCc1cccc(N2C(=O)C=CC2=O)c1)C(=O)N[C@@H](CC(=O)O)C(=O)N[C@@H](CCCNC(=N)N)C(=O)N[C@@H](C)C(=O)NCC(=O)NCC(=O)NCC(=O)NCC(=O)N[C@@H](CCCNC(=N)N)C(=O)NCC(=O)N[C@@H](CC(=O)O)C(=O)O [X27] (X61-RGADRAGGGGRGD-OH),54.88,163,46.24,86,42.34,58,36.23,25,0.27 ± 0.13,0.33 ± 0.14,0.39 ± 0.17,0.36 ± 0.16,0.24 ± 0.12,0.33 ± 0.16,0.32 ± 0.17,0.34 ± 0.14,Clinical score (adjuvant arthritis): 5.63 ± 1.12; Joint swelling degree (adjuvant arthritis): 0.74 ± 0.17 mm; Left and right paw swelling degree (adjuvant arthritis): 3.86 ± 0.85 mm; Area of neovascular plexus (mm^2) [4]: 0.106 ± 0.002 mm^2; Inhibition rate (%) [4]: 50.00%**; A570 nm/A630 nm (splenic lymphocytes; polypeptide dose 0.05 μM): 0.5388 ± 0.0643; Inhibition rate (%) (splenic lymphocytes; polypeptide dose 0.05 μM): 20.23%; A570 nm/A630 nm (splenic lymphocytes; polypeptide dose 0.1 μM): 0.5231 ± 0.0967; Inhibition rate (%) (splenic lymphocytes; polypeptide dose 0.1 μM): 22.55%; A570 nm/A630 nm (splenic lymphocytes; polypeptide dose 0.2 μM): 0.4792 ± 0.0849; Inhibition rate (%) (splenic lymphocytes; polypeptide dose 0.2 μM): 29.08%
27700 ± 8150,49.6 ± 10.2,0.602,34.35 ± 0.26,C[C@H](NC(=O)CNC(=O)[C@H](CCCNC(=N)N)NC(=O)CCCCCCCCCCc1cccc(N2C(=O)C=CC2=O)c1)C(=O)N[C@@H](CC(=O)O)C(=O)N[C@@H](CCCNC(=N)N)C(=O)N[C@@H](C)C(=O)NCC(=O)NCC(=O)NCC(=O)NCC(=O)N[C@@H](CCCNC(=N)N)C(=O)NCC(=O)N[C@@H](CC(=O)O)C(=O)O [X34] (X74-RGADRAGGGGRGD-OH),52.19,155,47.31,88,45.99,63,42.03,29,0.26 ± 0.18,0.38 ± 0.13,0.39 ± 0.11,0.35 ± 0.14,0.22 ± 0.18,0.38 ± 0.15,0.36 ± 0.16,0.34 ± 0.13,Clinical score (adjuvant arthritis): 5.66 ± 1.09; Joint swelling degree (adjuvant arthritis): 0.83 ± 0.17 mm; Left and right paw swelling degree (adjuvant arthritis): 3.84 ± 0.88 mm; Area of neovascular plexus (mm^2) [4]: 0.120 ± 0.014 mm^2; Inhibition rate (%) [4]: 43.40%*; A570 nm/A630 nm (splenic lymphocytes; polypeptide dose 0.05 μM): 0.5469 ± 0.0655; Inhibition rate (%) (splenic lymphocytes; polypeptide dose 0.05 μM): 19.03%; A570 nm/A630 nm (splenic lymphocytes; polypeptide dose 0.1 μM): 0.4573 ± 0.1104; Inhibition rate (%) (splenic lymphocytes; polypeptide dose 0.1 μM): 32.29%; A570 nm/A630 nm (splenic lymphocytes; polypeptide dose 0.2 μM): 0.4431 ± 0.1192; Inhibition rate (%) (splenic lymphocytes; polypeptide dose 0.2 μM): 34.39%
29700 ± 7580,53.1 ± 13.5,0.562,36.77 ± 0.29,C[C@H](NC(=O)CNC(=O)[C@H](CCCNC(=N)N)NC(=O)CCCCCCCCCCCCc1ccccc1N1C(=O)C=CC1=O)C(=O)N[C@@H](CC(=O)O)C(=O)N[C@@H](CCCNC(=N)N)C(=O)N[C@@H](C)C(=O)NCC(=O)NCC(=O)NCC(=O)NCC(=O)N[C@@H](CCCNC(=N)N)C(=O)NCC(=O)N[C@@H](CC(=O)O)C(=O)O [X24] (X84-RGADRAGGGGRGD-OH),54.21,161,49.46,92,45.99,63,44.93,31,0.24 ± 0.16,0.34 ± 0.18,0.43 ± 0.12,0.38 ± 0.13,0.23 ± 0.17,0.35 ± 0.13,0.38 ± 0.16,0.32 ± 0.12,Clinical score (adjuvant arthritis): 5.73 ± 1.15; Joint swelling degree (adjuvant arthritis): 0.76 ± 0.15 mm; Left and right paw swelling degree (adjuvant arthritis): 3.94 ± 0.70 mm; Area of neovascular plexus (mm^2) [4]: 0.107 ± 0.012 mm^2; Inhibition rate (%) [4]: 49.53%*; A570 nm/A630 nm (splenic lymphocytes; polypeptide dose 0.05 μM): 0.5823 ± 0.0474; Inhibition rate (%) (splenic lymphocytes; polypeptide dose 0.05 μM): 14.12%; A570 nm/A630 nm (splenic lymphocytes; polypeptide dose 0.1 μM): 0.5615 ± 0.1155; Inhibition rate (%) (splenic lymphocytes; polypeptide dose 0.1 μM): 16.86%; A570 nm/A630 nm (splenic lymphocytes; polypeptide dose 0.2 μM): 0.5142 ± 0.0636; Inhibition rate (%) (splenic lymphocytes; polypeptide dose 0.2 μM): 23.87%
32200 ± 8030,57.6 ± 10.6,0.518,39.91 ± 0.25,C[C@H](NC(=O)CNC(=O)[C@H](CCCNC(=N)N)NC(=O)CCCCCc1cccc(N2C(=O)C=CC2=O)c1)C(=O)N[C@@H](CC(=O)O)C(=O)N[C@@H](CCCNC(=N)N)C(=O)N[C@@H](C)C(=O)NCC(=O)NCC(=O)NCC(=O)NCC(=O)N[C@@H](CCCNC(=N)N)C(=O)NCC(=O)N[C@@H](CC(=O)O)C(=O)O [X29] (X71-RGADRAGGGGRGD-OH),54.21,161,45.70,85,40.88,56,39.13,27,0.27 ± 0.16,0.35 ± 0.18,0.36 ± 0.19,0.33 ± 0.17,0.22 ± 0.12,0.34 ± 0.15,0.35 ± 0.13,0.32 ± 0.17,Clinical score (adjuvant arthritis): 5.72 ± 1.06; Joint swelling degree (adjuvant arthritis): 0.84 ± 0.16 mm; Left and right paw swelling degree (adjuvant arthritis): 3.72 ± 0.80 mm; Area of neovascular plexus (mm^2) [4]: 0.109 ± 0.012 mm^2; Inhibition rate (%) [4]: 48.58%*; A570 nm/A630 nm (splenic lymphocytes; polypeptide dose 0.05 μM): 0.5595 ± 0.0932; Inhibition rate (%) (splenic lymphocytes; polypeptide dose 0.05 μM): 17.16%; A570 nm/A630 nm (splenic lymphocytes; polypeptide dose 0.1 μM): 0.5284 ± 0.0661; Inhibition rate (%) (splenic lymphocytes; polypeptide dose 0.1 μM): 21.76%; A570 nm/A630 nm (splenic lymphocytes; polypeptide dose 0.2 μM): 0.5094 ± 0.1191; Inhibition rate (%) (splenic lymphocytes; polypeptide dose 0.2 μM): 24.58%
